By inhibition is commonly meant the drop in the measured response relative to a control, in per cent.

A value given as a limit tells only on which side of the number the result lay.

Data on 29 compounds can be found in patent US20020183384A1, “Methods of treating nuclear factor-kappa B mediated diseases and disorders” (priority 2001, published 2002).

The first assay deals with NF-κB mediated transcription. Nature of the assay: NF-κB driven β-lactamase reporter assay in ECV-304 NF-κB.βlaZ cells (AURORA CCF2 fluorescence). The assay is classed as cell-based, human. Particulars: 10 μM compound; ECV-304 NF-κB.βlaZ cells stimulated with 10 ng/mL TNF-α or 100 pg/mL IL-1β, 6 hours at 37° C.; inhibition of maximum blue/green ratio. A digest of the protocol: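 Blue/green (460/530 nm, excitation 395 nm) CCF2 emission ratio quantified NF-κB-driven β-lactamase expression in the stably transfected endothelial-like ECV-304 clone 1E8.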
On the technique in general: A reporter such as luciferase makes a cellular process visible.
For `CC(C)c1cc(C(C)C)c(OC(=O)NS(=O)(=O)Oc2c(C(C)C)cc(C(C)C)cc2C(C)C)c(C(C)C)c1` [Example 126, Carbamic acid, [[2,4,6-tris(1-methylethyl)phenoxy]sulfonyl]-,2,4,6-tris(1-methylethyl)phenyl ester], the “Percent Inhibition at 10 μM” value came out at 10.02%.

For the compound `CC(C)c1cc(C(C)C)c(OS(=O)(=O)NC(=O)Oc2c(C(C)(C)C)cc(C(C)(C)C)cc2C(C)(C)C)c(C(C)C)c1` [Example 127, Carbamic acid, [[2,4,6-bis(1-methylethyl)phenoxy]sulfonyl]-, 2,4,6-tris(1,1-dimethylethyl)phenyl ester], the “Percent Inhibition at 10 μM” value is reported as 74.01%.

With `CC(C)c1cccc(C(C)C)c1OS(=O)(=O)NC(=O)OC1C2CC3CC(C2)CC1C3` (centres unmarked) [Example 131, Carbamic acid, [[2,6-bis(1-methylethyl)phenoxy]sulfonyl]-, tricyclo[3.1.1.1^3,7]-dec-2-yl ester], the “Percent Inhibition at 10 μM” value was determined as 33.39%.

With `CC(C)c1cc(-c2cc(C(C)C)c(OC(=O)NS(=O)(=O)Oc3c(C(C)C)cccc3C(C)C)c(C(C)C)c2)cc(C(C)C)c1OC(=O)NS(=O)(=O)Oc1c(C(C)C)cccc1C(C)C` [Example 134, Carbamic acid, [[2,6-bis(1-methylethyl)phenoxy]sulfonyl]-, 3,3′,5,5′-tetrakis(1-methylethyl) [1,1′-biphenyl]-4,4′-diyl ester], the “Percent Inhibition at 10 μM” value is 18.39%.

The same assay, now with this note: Homo sapiens, ECV-304, 6 h, 10 μM compound; ECV-304 NF-κB.βlaZ cells stimulated with 10 ng/mL TNF-α or 100 pg/mL IL-1β, 6 hours at 37° C.; inhibition of maximum blue/green ratio; read-out: Percent Inhibition at 10 μM.
Regarding `CC[C@H](C=C[C@@H](C)[C@H]1CC[C@H]2[C@@H]3CC=C4C[C@H](OC(=O)NS(=O)(=O)Oc5c(C(C)C)cccc5C(C)C)CC[C@]4(C)[C@H]3CC[C@]12C)C(C)C` [Example 118, Stigmasta-5,22-dien-3-ol, [[2,6-bis(1-methylethyl)phenoxy]sulfonyl]-carbamate, (3α)-], the inhibition at 10 µM was below 10%.

On to `CC(C)c1cc(C(C)C)c(CC(=O)NS(=O)(=O)Oc2c(C(C)C)cccc2C(C)C)c(C(C)C)c1` [Example 120, Sulfamic acid, [[2,4,6-tris(1-methylethyl)phenyl]acetyl]-, 2,6-bis(1-methylethyl)phenyl ester], for which the inhibition at 10 µM turned out to be 55%.

For `CC[C@H](CC[C@@H](C)[C@H]1CC[C@H]2[C@@H]3CCC4C[C@H](OC(=O)NS(=O)(=O)Oc5c(C(C)C)cccc5C(C)C)CC[C@]4(C)[C@H]3CC[C@]12C)C(C)C` (stereo partly drawn) [Example 121, Stigmastan-3-ol, [[2,6-bis(1-methylethyl)phenoxy]sulfonyl]-carbamate, (3α)-], the inhibition at 10 µM was below 10%.

In the case of `CC(C)c1cccc(C(C)C)c1CC(=O)NS(=O)(=O)Oc1c(C(C)C)cccc1C(C)C` [Example 122, Sulfamic acid, [[2,6-bis(1-methylethyl)phenyl]acetyl]-, 2,6-bis(1-methylethyl)-phenyl ester], the inhibition at 10 µM came out at 65.3%.

For the compound `CC(C)c1cccc(C(C)C)c1OS(=O)(=O)NC(=O)OC1CCCCC1` [Example 133, Carbamic acid, [[2,6-bis(1-methylethyl)phenoxy]sulfonyl]-, cyclohexyl ester], the inhibition at 10 µM is below 10%.

For the compound `CC(C)c1cccc(C(C)C)c1OS(=O)(=O)NC(=O)OC12CC3CC(CC(C3)C1)C2` [Example 136, Carbamic acid, [[2,6-bis(1-methylethyl)phenoxy]sulfonyl]-, tricyclo[3.3.1.1^3,7]-dec-1-yl ester], the inhibition at 10 µM is below 10%.

Consider `CC1CCC(C(C)C)C(OC(=O)NS(=O)(=O)Oc2c(C(C)C)cccc2C(C)C)C1` (centres unmarked) [Example 138, Carbamic acid, [[2,6-bis(1-methylethyl)phenoxy]sulfonyl]-, 5-methyl-2-(1-methylethyl)cyclohexyl ester], for which the inhibition at 10 µM is 66.2%.

As for `CC(C)c1cccc(C(C)C)c1OS(=O)(=O)NC(=O)Sc1c(C(C)C)cccc1C(C)C` [Example 139, Carbamothioic acid, [[2,6-bis(1-methylethyl)phenoxy]sulfonyl]-, S-[2,6-bis(1-methylethyl)phenyl] ester], the inhibition at 10 µM amounted to 65.5%.

Take `CCc1cccc(CC)c1COC(=O)NS(=O)(=O)Oc1c(C(C)C)cccc1C(C)C` [Example 140, Carbamic acid, [[2,6-bis(1-methylethyl)phenoxy]sulfonyl]-, (2,6-diethylphenyl)methyl ester]: the inhibition at 10 µM turned out to be 38.7%.

As to `CC(C)c1cccc(C(C)C)c1OS(=O)(=O)NC(=O)OC1[C@H](C(C)C)CCC[C@H]1C(C)C` [Example 142, Carbamic acid, [[2,6-bis(1-methylethyl)phenoxy]sulfonyl]-, (2S,6S)-2,6-bis(1-methylethyl)cyclohexyl ester], the inhibition at 10 µM worked out at 53.9%.

As to `CC(C)c1cccc(C(C)C)c1OS(=O)(=O)NC(=O)C1CC1c1ccccc1` (centres unmarked) [Example 144, (2-Phenyl-cyclopropanecarbonyl)-sulfamic acid 2,6-diisopropyl-phenyl ester], the inhibition at 10 µM is 16.2%.

The same assay, now with this note: Homo sapiens; 10 μM compound; ECV-304 NF-κB.βlaZ cells stimulated with 10 ng/mL TNF-α or 100 pg/mL IL-1β, 6 hours at 37° C.; inhibition of maximum blue/green ratio; read-out: Percent Inhibition at 10 μM.
In the case of `CC(C)c1cccc(C(C)C)c1OS(=O)(=O)NC(=O)Oc1c(C(C)C)c(C(C)C)c(F)c(C(C)C)c1C(C)C` [Example 116, Carbamic acid, [[2,6-bis(1-methylethyl)phenoxy]sulfonyl]-, 4-fluoro-2,3,5,6-tetrakis(1-methylethyl)phenyl ester], the inhibition at 10 µM is below 10%.

In the case of `CC(C)c1cc(Cl)cc(C(C)C)c1OC(=O)NS(=O)(=O)Oc1c(C(C)C)cccc1C(C)C` [Example 117, Carbamic acid, [[2,6-bis(1-methylethyl)phenoxy]sulfonyl]-, 4-chloro-2,6-bis(1-methylethyl)phenyl ester], the inhibition at 10 µM is below 10%.

`Cc1cc(C(C)(C)C)c(OC(=O)NS(=O)(=O)Oc2c(C(C)C)cccc2C(C)C)c(C(C)(C)C)c1` [Example 119, Carbamic acid, [[2,6-bis(1-methylethyl)phenoxy]sulfonyl]-, 2,6-bis(1,1-dimethylethyl)-4-methylphenyl ester]: the inhibition at 10 µM turned out to be 56.6%.

Regarding `COc1cc(C(C)C)c(OC(=O)NS(=O)(=O)Oc2c(C(C)C)cccc2C(C)C)c(C(C)C)c1` [Example 123, Carbamic acid, [[2,6-bis(1-methylethyl)phenoxy]sulfonyl]-, 4-methoxy-2,6-bis(1-methylethyl)phenyl ester], the inhibition at 10 µM is below 10%.

For the compound `CC(C)c1cc(C(C)C)c(OC(=O)NS(=O)(=O)Oc2c(C(C)C)cccc2C(C)C)c(C(C)C)c1` [Example 124, Carbamic acid, [[2,6-bis(1-methylethyl)phenoxy]sulfonyl]-, 2,4,6-tris(1-methylethyl)phenyl ester], the inhibition at 10 µM is 11.3%.

In the case of `CC(C)c1cc(C(C)C)c(OS(=O)(=O)NC(=O)Oc2c(C(C)C)cccc2C(C)C)c(C(C)C)c1` [Example 125, Carbamic acid, [[2,4,6-tris(1-methylethyl)phenoxy]sulfonyl]-, 2,6-bis(1-methylethyl)phenyl ester], the inhibition at 10 µM turned out to be 11%.

For `CC(C)c1cccc(C(C)C)c1OS(=O)(=O)NC(=O)Oc1c(C(C)(C)C)cc(SSc2cc(C(C)(C)C)c(O)c(C(C)(C)C)c2)cc1C(C)(C)C` [Example 128, Carbamic acid, [[2,6-bis(1-methylethyl)phenoxy]sulfonyl]-, 4-[[3,5-bis(1,1-dimethylethyl)-4-hydroxyphenyl]dithio]-2,6-bis(1,1-dimethylethyl)phenyl ester], the inhibition at 10 µM was below 10%.

Turning to `CC(C)c1ccc(OC(=O)NS(=O)(=O)Oc2c(C(C)C)cccc2C(C)C)c(C(C)C)c1` [Example 129, Carbamic acid, [[2,6-bis(1-methylethyl)phenoxy]sulfonyl]-, 2,4-bis(1-methylethyl)phenyl ester], the inhibition at 10 µM is below 10%.

Turning to `CC(C)c1cc(CN(C)C)cc(C(C)C)c1OC(=O)NS(=O)(=O)Oc1c(C(C)C)cccc1C(C)C` [Example 130, Carbamic acid, [[2,6-bis(1-methylethyl)phenoxy]sulfonyl]-, 4-[(dimethylamino)-methyl]-2,6-bis(1-methylethyl)phenyl ester], the inhibition at 10 µM was below 10%.

For the compound `CC(C)c1cc(O)cc(C(C)C)c1OC(=O)NS(=O)(=O)Oc1c(C(C)C)cccc1C(C)C` [Example 132, Carbamic acid, [[2,6-bis(1-methylethyl)phenoxy]sulfonyl]-, 4-hydroxy-2,6-bis(1-methylethyl)phenyl ester], the inhibition at 10 µM was below 10%.

Turning to `CC(C)c1cccc(C(C)C)c1OC(=O)NS(=O)(=O)Oc1c(C(C)C)cc(O)cc1C(C)C` [Example 135, Carbamic acid, [[4-hydroxy-2,6-bis(1-methylethyl)phenoxy]sulfonyl]-, 2,6-bis(1-methylethyl)phenyl ester], the inhibition at 10 µM was below 10%.

As for `Cc1cccc(C(C)(C)C)c1OC(=O)NS(=O)(=O)Oc1c(C(C)C)cccc1C(C)C` [Example 137, Carbamic acid, [[2,6-bis(1-methylethyl)phenoxy]sulfonyl]-, 2-(1,1-dimethylethyl)-6-methylphenyl ester], the inhibition at 10 µM is below 10%.

On to `CC(C)c1cccc(C(C)C)c1OC(=O)NS(=O)(=O)NC(=O)Oc1c(C(C)C)cccc1C(C)C` [Example 141, Carbamic acid, sulfonylbis-, bis[2,6-bis(1-methylethyl)phenyl] ester], for which the inhibition at 10 µM is below 10%.

As to `CC(C)c1cc(C(C)(C)C)cc(C(C)C)c1OC(=O)NS(=O)(=O)Oc1c(C(C)C)cccc1C(C)C` [Example 143, Carbamic acid, [[2,6-bis(1-methylethyl)phenoxy]sulfonyl]-, 4-(1,1-dimethylethyl)-2,6-bis(1-methylethyl)phenyl ester], the inhibition at 10 µM worked out at 65.8%.
